Reference: US10227324B2 (Shanghai Haiyan Pharmaceutical Technology Co., Ltd., priority 2014, dated 2019)
Where two headings read alike, the source gives them in different places.

Legend:
[1] = target: T1, PI3K-α kinase (p110α/p85α) (Homo sapiens, UniProt P42336); assay: Determination of PI3K kinase activity (ADP Transcreener, fluorescence polarization); format: biochemical; conditions: for IC50: ATP 10 μM; for increase of inhibitory activity against PI3K-α kinase compared with BKM-120: relative to BKM-120
T1 construct: purchased Invitrogen PV4788
T1 sequence (P42336 whole entry): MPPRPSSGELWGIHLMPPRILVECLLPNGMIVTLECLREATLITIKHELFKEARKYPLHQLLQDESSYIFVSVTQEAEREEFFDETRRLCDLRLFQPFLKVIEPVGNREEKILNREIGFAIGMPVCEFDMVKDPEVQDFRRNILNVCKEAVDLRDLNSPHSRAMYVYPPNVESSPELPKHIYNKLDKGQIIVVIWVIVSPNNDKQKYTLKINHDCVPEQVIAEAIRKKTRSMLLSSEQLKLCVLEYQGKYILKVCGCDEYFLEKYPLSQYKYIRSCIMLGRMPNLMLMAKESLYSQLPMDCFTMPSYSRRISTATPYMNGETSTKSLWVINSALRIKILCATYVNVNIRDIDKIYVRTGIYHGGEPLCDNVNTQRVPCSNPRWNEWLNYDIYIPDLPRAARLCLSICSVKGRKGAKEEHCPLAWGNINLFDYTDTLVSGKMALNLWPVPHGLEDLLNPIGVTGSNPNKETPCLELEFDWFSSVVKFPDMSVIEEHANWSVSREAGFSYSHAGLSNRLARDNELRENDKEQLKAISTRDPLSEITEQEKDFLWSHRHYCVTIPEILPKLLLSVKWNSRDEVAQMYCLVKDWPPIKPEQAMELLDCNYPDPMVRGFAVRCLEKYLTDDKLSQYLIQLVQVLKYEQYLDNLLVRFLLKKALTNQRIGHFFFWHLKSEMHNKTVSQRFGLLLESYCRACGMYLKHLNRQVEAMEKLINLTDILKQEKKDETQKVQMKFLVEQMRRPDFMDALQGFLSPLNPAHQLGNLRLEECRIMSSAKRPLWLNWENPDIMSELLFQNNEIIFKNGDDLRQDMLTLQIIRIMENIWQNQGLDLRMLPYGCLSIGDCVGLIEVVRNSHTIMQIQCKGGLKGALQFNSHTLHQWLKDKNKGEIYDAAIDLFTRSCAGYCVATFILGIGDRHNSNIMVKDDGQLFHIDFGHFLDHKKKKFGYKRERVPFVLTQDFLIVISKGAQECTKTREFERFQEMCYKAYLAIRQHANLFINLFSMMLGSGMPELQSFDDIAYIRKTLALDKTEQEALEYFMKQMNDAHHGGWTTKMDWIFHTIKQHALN
T1 sequence (P27986 whole entry partner): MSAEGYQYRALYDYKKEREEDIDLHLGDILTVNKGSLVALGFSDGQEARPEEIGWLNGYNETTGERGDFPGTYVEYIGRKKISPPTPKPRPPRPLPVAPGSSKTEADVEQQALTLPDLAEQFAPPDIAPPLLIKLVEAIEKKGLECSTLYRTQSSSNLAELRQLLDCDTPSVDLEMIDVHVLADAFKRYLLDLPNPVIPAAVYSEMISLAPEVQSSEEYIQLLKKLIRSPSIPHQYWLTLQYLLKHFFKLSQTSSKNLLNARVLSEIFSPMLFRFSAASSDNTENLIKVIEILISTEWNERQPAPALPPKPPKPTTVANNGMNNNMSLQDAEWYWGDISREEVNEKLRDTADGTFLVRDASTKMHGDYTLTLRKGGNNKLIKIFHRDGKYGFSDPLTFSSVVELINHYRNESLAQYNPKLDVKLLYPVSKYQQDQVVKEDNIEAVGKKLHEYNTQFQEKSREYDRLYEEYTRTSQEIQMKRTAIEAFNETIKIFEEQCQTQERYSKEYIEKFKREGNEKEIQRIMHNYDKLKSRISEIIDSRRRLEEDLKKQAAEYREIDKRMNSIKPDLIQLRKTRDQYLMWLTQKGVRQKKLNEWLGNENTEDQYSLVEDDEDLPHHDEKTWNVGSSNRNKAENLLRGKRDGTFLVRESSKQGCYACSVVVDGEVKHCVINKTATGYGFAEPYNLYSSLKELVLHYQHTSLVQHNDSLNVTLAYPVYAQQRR

[2] = target: T2, PI3K-β kinase (p110β/p85α) (Homo sapiens, UniProt P42338); assay: as above; format: biochemical; conditions: Table 1; ATP 10 μM; read-out: PI3K-β/nM (IC50 of inhibitory activity against PI3K kinase)
T2 construct: purchased Millipore 14-603
T2 sequence (P42338 whole entry): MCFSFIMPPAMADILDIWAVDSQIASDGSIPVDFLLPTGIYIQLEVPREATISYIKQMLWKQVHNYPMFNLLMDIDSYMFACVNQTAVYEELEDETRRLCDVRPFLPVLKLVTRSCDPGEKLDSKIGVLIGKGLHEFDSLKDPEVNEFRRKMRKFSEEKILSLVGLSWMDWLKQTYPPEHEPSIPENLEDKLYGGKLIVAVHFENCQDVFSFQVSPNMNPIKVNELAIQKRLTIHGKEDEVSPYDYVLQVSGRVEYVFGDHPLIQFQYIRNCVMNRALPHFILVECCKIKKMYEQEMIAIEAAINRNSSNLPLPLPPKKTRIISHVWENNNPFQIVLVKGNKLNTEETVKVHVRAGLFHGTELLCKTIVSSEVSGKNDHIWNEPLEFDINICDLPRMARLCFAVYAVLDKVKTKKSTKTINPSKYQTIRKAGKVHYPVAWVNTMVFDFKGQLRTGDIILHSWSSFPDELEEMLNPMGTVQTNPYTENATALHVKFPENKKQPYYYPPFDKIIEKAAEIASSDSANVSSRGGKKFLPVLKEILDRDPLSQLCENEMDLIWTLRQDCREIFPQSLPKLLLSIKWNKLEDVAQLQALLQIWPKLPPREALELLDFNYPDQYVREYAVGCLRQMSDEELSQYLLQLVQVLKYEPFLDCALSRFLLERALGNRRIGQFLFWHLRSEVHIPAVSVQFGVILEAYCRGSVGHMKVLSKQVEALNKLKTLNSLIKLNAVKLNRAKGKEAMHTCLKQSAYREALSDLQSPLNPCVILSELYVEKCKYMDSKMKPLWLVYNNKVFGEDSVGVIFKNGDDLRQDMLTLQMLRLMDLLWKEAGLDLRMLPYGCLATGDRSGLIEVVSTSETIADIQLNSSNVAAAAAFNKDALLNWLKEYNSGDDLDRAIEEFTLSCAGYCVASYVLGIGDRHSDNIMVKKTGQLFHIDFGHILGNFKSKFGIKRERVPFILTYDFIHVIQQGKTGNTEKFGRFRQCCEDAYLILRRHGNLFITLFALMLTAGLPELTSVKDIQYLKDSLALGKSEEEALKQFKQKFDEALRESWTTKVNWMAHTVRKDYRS
T2 sequence (P27986 whole entry partner): as the sequence (P27986 whole entry partner) above

[3] = target: T3, PI3K-δ kinase (p110δ/p85α) (Homo sapiens, UniProt O00329); assay: as above; format: biochemical; conditions: Table 1; ATP 10 μM; read-out: PI3K-δ/nM (IC50 of inhibitory activity against PI3K kinase)
T3 construct: purchased Millipore 14-604M
T3 sequence (O00329 whole entry): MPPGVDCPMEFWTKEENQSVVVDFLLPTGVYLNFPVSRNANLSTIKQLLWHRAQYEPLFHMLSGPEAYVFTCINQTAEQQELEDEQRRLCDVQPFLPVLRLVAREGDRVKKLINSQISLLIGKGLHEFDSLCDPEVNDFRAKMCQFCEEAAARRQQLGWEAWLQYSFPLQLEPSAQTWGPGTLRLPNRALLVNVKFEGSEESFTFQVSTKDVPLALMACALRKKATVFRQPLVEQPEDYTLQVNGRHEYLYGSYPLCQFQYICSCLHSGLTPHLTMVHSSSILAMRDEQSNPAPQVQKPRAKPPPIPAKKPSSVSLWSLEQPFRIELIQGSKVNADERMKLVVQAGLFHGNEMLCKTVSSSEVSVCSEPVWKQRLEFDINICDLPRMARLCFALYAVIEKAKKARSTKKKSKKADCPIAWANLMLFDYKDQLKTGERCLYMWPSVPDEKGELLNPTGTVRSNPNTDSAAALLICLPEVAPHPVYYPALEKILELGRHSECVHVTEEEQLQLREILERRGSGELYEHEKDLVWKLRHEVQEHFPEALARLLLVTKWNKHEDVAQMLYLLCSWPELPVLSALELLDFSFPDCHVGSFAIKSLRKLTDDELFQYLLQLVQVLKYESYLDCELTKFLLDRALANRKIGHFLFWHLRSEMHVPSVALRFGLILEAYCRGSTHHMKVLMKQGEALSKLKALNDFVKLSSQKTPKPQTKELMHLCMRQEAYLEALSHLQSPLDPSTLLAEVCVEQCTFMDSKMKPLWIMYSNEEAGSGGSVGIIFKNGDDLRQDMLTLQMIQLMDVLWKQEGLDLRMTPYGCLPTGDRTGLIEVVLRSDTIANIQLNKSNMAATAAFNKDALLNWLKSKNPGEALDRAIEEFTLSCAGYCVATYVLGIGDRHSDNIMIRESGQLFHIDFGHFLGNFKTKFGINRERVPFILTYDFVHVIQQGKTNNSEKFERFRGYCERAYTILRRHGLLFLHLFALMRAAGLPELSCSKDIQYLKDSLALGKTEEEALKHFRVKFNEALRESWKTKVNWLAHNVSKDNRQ
T3 sequence (P27986 whole entry partner): as the sequence (P27986 whole entry partner) above

[4] = target: T4, PI3K-γ kinase (p110γ) (Homo sapiens, UniProt P48736); assay: as above; format: biochemical; conditions: Table 1; ATP 10 μM; read-out: PI3K-γ/nM (IC50 of inhibitory activity against PI3K kinase)
T4 construct: purchased Invitrogen PV4786
T4 sequence (P48736 whole entry): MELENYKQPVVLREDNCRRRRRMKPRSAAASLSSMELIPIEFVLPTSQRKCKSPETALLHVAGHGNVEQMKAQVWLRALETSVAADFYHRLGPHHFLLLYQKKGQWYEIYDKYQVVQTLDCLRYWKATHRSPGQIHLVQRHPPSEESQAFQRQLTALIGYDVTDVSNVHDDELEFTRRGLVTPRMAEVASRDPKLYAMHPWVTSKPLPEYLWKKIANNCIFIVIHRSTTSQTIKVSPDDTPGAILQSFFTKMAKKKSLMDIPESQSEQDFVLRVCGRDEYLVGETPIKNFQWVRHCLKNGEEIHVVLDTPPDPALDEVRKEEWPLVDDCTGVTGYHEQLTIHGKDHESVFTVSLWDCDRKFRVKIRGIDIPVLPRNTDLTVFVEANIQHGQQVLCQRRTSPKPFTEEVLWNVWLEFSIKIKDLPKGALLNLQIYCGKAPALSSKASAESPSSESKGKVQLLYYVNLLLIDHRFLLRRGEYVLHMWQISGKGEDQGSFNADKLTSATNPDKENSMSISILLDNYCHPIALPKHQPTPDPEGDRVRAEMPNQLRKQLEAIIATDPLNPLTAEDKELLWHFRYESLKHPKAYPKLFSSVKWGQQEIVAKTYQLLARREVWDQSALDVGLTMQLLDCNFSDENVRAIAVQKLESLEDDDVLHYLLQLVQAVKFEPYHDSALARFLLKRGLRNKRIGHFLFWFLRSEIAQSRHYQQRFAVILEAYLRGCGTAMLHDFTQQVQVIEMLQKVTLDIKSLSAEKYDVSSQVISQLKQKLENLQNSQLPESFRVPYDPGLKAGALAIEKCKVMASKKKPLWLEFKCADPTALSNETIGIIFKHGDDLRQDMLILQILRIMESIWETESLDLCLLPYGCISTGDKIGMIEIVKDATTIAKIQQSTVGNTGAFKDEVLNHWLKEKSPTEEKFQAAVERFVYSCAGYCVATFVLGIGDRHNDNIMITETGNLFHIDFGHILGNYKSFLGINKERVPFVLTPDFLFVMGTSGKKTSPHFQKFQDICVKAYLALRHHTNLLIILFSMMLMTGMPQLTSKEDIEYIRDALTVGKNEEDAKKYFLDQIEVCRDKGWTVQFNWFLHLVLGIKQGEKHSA
Procedure, shortened: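 Each 25 μL reaction held PI3K enzyme (p110α/p85α 3 ng, p110β/p85α 60 ng, p110δ/p85α 90 ng, or p110γ 100 ng), 10 μM ATP, 30 μM PIP2:PS and 2% DMSO, incubated 1 h at 25 °C. Compounds were tested in duplicate across a 3-fold series, 0.00046–1 μM as prepared. ADP was detected by Transcreener fluorescence polarization, quantified against an ADP/ATP standard curve, and IC50 fitted.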

[5] = system: MCF-7 cells; assay: Cell inhibitory activity detected by MTT assay, MCF-7; format: cell-based; conditions: Homo sapiens, MCF7, 72 h, read-out: MCF-7 cell (IC50/nM), cell growth inhibition
Procedure, shortened: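 MCF-7 cells in DMEM + 10% FBS were treated after adherence with compounds at 8 concentrations (0.0046–10 μM) for 72 h at 37 °C, 5% CO2.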

[6] = Table 1, read-out: PI3K-α/nM (IC50 of inhibitory activity against PI3K kinase)
[7] = Table 2, read-out: PI3K-α/nM (IC50 of inhibitory activity against PI3K-α kinase)

| Compound | IC50 [1, 6] | IC50 [2] | IC50 [3] | IC50 [4] | increase of inhibitory activity against PI3K-α kinase compared with BKM-120 [1] | IC50 [5] | IC50 [1, 7] |
| --- | --- | --- | --- | --- | --- | --- | --- |
| C[C@H]1COCCN1c1nc(-c2cnc(N)cc2C(F)(F)F)cc(C2(S(C)(=O)=O)CCC2)n1 [Compound S-9] | 5 nM | 105 nM | 63 nM | 155 nM | about 10 times | 78 nM | – |
| CC(C)S(=O)(=O)C1(c2cc(-c3cnc(N)cc3C(F)(F)F)nc(N3CCOCC3)n2)CCC1 [Compound S-19] | 80 nM | 512 nM | 493 nM | > 3000 nM | – | – | – |
| Nc1cc(C(F)(F)F)c(-c2cc(C3(S(=O)(=O)c4ccccc4)CCC3)nc(N3CCOCC3)n2)cn1 [Compound S-20] | 24 nM | 676 nM | 42 nM | 1160 nM | – | – | – |
| CCS(=O)(=O)C1(c2cc(-c3cnc(N)cc3C(F)(F)F)nc(N3CCOC[C@@H]3C)n2)CCC1 [Compound S-23] | 16 nM | 620 nM | 62 nM | 525 nM | – | 246 nM | – |
| C[C@H]1COCCN1c1nc(-c2cnc(N)nc2C(F)(F)F)cc(C2(S(C)(=O)=O)CCC2)n1 [Compound S-30] | 12 nM | 18 nM | 12 nM | 141 nM | – | 101 nM | – |
| C[C@H]1COCCN1c1nc(-c2cnc(N)cc2Cl)cc(C2(S(C)(=O)=O)CCC2)n1 [Compound S-31] | 12 nM | 171 nM | 103 nM | 148 nM | – | 45 nM | – |
| C[C@H]1COCCN1c1nc(-c2cnc(N)nc2)cc(C2(S(C)(=O)=O)CCC2)n1 [Compound S-33] | 12 nM | 115 nM | 58 nM | 112 nM | – | 79 nM | – |
| CS(=O)(=O)C1(c2cc(-c3cnc(N)cc3Cl)nc(N3CCOCC3)n2)CC1 [Compound S-37, 4-chloro-5-(6-(1-(methylsulfonyl)cyclopropyl)-2-morpholinopyrimidin-4-yl)pyridin-2-amine] | 4 nM | 28 nM | 84 nM | 114 nM | about 10 times | 258 nM | 4 nM |
| CC(C)(c1cc(-c2cnc(N)cc2Cl)nc(N2CCOCC2)n1)S(C)(=O)=O [Compound S-38, 4-chloro-5-(6-(2-(methylsulfonyl)prop-2-yl)-2-morpholinopyrimidin-4-yl)pyridin-2-amine] | 17 nM | 113 nM | 212 nM | 369 nM | – | 180 nM | – |
| CC(C)(c1cc(-c2cnc(N)nc2C(F)(F)F)nc(N2CCOCC2)n1)S(C)(=O)=O [Compound S-45] | 35 nM | 28 nM | 17 nM | 78 nM | – | 329 nM | – |
| CS(=O)(=O)C1(c2cc(-c3cnc(N)nc3C(F)(F)F)nc(N3CCOCC3)n2)CC1 [Compound S-46] | 6 nM | 8 nM | 13 nM | 96 nM | about 10 times | 301 nM | – |
| CCS(=O)(=O)C1(c2cc(-c3cnc(N)cc3C(F)(F)F)nc(N3CCOCC3)n2)CCC1 [Compound S-49, 5-(6-(1-(ethylsulfonyl)cyclobutyl)-2-morpholinopyrimidin-4-yl)-4-(trifluoromethyl)pyridin-2-amine] | 17 nM | 327 nM | 85 nM | 2020 nM | – | 187 nM | – |
| CS(=O)(=O)C(F)(F)c1cc(-c2cnc(N)cc2Cl)nc(N2CCOCC2)n1 [Compound S-54, 4-chloro-5-(6-(difluoro(methylsulfonyl)methyl)-2-morpholinopyrimidin-4-yl)pyridin-2-amine] | 12 nM | 92 nM | 145 nM | 199 nM | – | 159 nM | – |
| Nc1cc(Cl)c(-c2cc(C3(S(=O)(=O)c4ccccc4F)CC3)nc(N3CCOCC3)n2)cn1 [Compound S-66] | 9 nM | 73 nM | 46 nM | 160 nM | – | 212 nM | 9 nM |
| C[C@@H]1COCCN1c1nc(-c2cnc(N)cc2Cl)cc(C(C)(C)S(C)(=O)=O)n1 [Compound S-67] | 6 nM | 208 nM | 59 nM | 113 nM | – | 105 nM | 6 nM |
| COC(C)(C)c1cc(-c2cnc(N)cc2C(F)(F)F)nc(N2CCOCC2)n1 [Compound S-71, 5-(6-(2-methoxypropan-2-yl)-2-morpholinopyrimidin-4-yl)-4-(trifluoromethyl) pyridin-2-amine] | 9 nM | 177 nM | – | 1030 nM | – | 436 nM | – |
| COC(C)(C)c1cc(-c2cnc(N)cc2Cl)nc(N2CCOC[C@@H]2C)n1 [Compound S-75] | 23 nM | 943 nM | 810 nM | 654 nM | – | 131 nM | 23 nM |
| COC(C)(C)c1cc(-c2cnc(N)cc2Cl)nc(N2CCOCC2)n1 [Compound S-76] | 53 nM | 316 nM | 207 nM | 228 nM | – | 66 nM | 53 nM |

Further lines, results first:

| IC50 [1, 6] | IC50 [2] | IC50 [3] | IC50 [4] | increase of inhibitory activity against PI3K-α kinase compared with BKM-120 [1] | IC50 [5] | IC50 [1, 7] | Compound |
| --- | --- | --- | --- | --- | --- | --- | --- |
| 12 nM | 527 nM | 184 nM | 354 nM | – | – | – | CS(=O)(=O)C1(c2cc(-c3cnc(N)cc3C(F)(F)F)nc(N3CCOCC3)n2)CCC1 [Compound S-4] |
| 42 nM | 1140 nM | 367 nM | 592 nM | – | 340 nM | – | CS(=O)(=O)C1(c2cc(-c3cnc(N)cc3C(F)(F)F)nc(N3CCOCC3)n2)CCCC1 [Compound S-10] |
| 67 nM | 1670 nM | 226 nM | > 3000 nM | – | 153 nM | – | CC(C)S(=O)(=O)C1(c2cc(-c3cnc(N)cc3C(F)(F)F)nc(N3CCOC[C@@H]3C)n2)CCC1 [Compound S-13, (S)-5-(6-(1-(isopropylsulfonyl)cyclobutyl)-2-(3-methylmorpholino)pyrimidin-4-yl)-4-(trifluoromethyl)pyridin-2-amine] |
| – | 548 nM | 246 nM | 957 nM | – | 437 nM | – | CC(C)S(=O)(=O)C1(c2cc(-c3cnc(N)cc3C(F)(F)F)nc(N3CCOCC3)n2)CC1 [Compound S-18] |
| 76 nM | 977 nM | 161 nM | 923 nM | – | 73 nM | – | C[C@H]1COCCN1c1nc(-c2ccc(N)nc2)cc(C2(S(C)(=O)=O)CCC2)n1 [Compound S-32] |
| 6 nM | 82 nM | 79 nM | 331 nM | – | 170 nM | – | C[C@H]1COCCN1c1nc(-c2cnc(N)cc2C(F)(F)F)cc(C(C)(C)S(C)(=O)=O)n1 [Compound S-41] |
| 4 nM | 72 nM | 33 nM | 121 nM | – | 184 nM | – | Nc1cc(C(F)(F)F)c(-c2cc(C3(S(=O)(=O)c4ccccc4F)CC3)nc(N3CCOCC3)n2)cn1 [Compound S-58] |
| 8 nM | 92 nM | 143 nM | 184 nM | – | 94 nM | 8 nM | C[C@@H]1COCCN1c1nc(-c2cnc(N)cc2Cl)cc(C2(S(C)(=O)=O)CC2)n1 [Compound S-68] |
| 20 nM | – | – | 204 nM | – | 11 nM | – | C[C@H]1COCCN1c1nc(-c2cnc(N)cc2F)cc(C2(S(C)(=O)=O)CC2)n1 [Compound S-83] |
